Read-outs that look alike come from different tables or passages of the source.
What was measured:
[1] = system: γ-globin promoter luciferase reporter; assay type: cell-based, human
Protocol: The γ-globin reporter contained a 1.5 Kb Human HS2 fragment upstream of the −299 to +37 human γ-globin promoter in Promega's (Madison, Wis.) pGL2 Basic plasmid. [See Caterina, J. J., Donze, D., Sun, C. […] Nucleic Acids Res 22, 2383-2391 (1994).]
Transfection of K562 cells was performed using the DMRIE lipofection method (Gibco, Invitrogen, Carlsbad, Calif.). K562 cells were counted and 1×10^5 cells were resuspended in 0.1 mL OPTI-MEM in a 12-well plate (BD Falcon, Franklin Lakes, N.J.). Experiments were all done in triplicates. 1.5 ng Renilla plasmid (Promega Corporation. Madison, Wis.) and 0.5 μg reporter construct were added to each well. After 2 hours of transfection, PNAs were added to a final concentration of 10 μM. 2 hours later, 1 ml RPMI and a final concentration of 10% FBS were added to each well. This was followed by incubation at 37° C. for 36 hours.
36 hours after PNA addition, K562 cells were collected by centrifugation at 2500 rpm. Media was discarded and cells were washed once with 1×PBS and resuspended in 250 μL 1× passive lysis buffer (PLB) (Promega). Tubes that contained cells were put on a rocker platform for 10 minutes at room temperature. Cells were then centrifuged at 13000 rpm and resuspended in 200 μL 1×PLB, loaded on a 96 well plate and further analyzed with a Turner Biosystem Microplate Luminometer. […] Mol Cell Biol 27, 8547-8560 (2007).] Luciferase values were divided by the Renilla value from the same sample after it had been divided by 1000. To minimize the differences in between loading, each sample was loaded in three different wells and the average of three was calculated.

[2] = system: human γ-globin promoter DNA oligonucleotide (wild type or mutated target sequence); settings: for binding of PNA to its target DNA oligo (bound/input): wild type vs mutant oligo, PNA 0-10 μM, 37° C. overnight
Protocol: FIG. 1 depicts in vitro target binding specificity of four PNAs designed to interact with the human γ-globin promoter. […] The relative location of known promoter elements within this region is also indicated. Orientation of the PNA molecule relative to the promoter sequence is shown above, with a lys at its 3′-end and a biotin molecule (circle) attached at the 5′-end. In FIG. 1(b), different concentrations of PNAs (0-10 μM) were incubated with a constant amount of radioactively labeled DNA oligonucleotide (10 nM) containing either the wild type (wt) or mutated (mut) target sequence followed by incubation with streptavidin Dynabeads and collection with a magnetic particle concentrator. Bound/input ratios were obtained after scintillation counter analysis. […] The A+G sequence ladder is shown in lane 1, along with the nucleotide sequence of the γ-globin promoter aligned on the left.
A novel assay was developed to monitor specific binding of PNA molecules to their cognate DNA site (FIG. 1(b)). 2 ng of ^32P-labelled double-stranded DNA oligonucleotide (designed at regions of the γ-promoter centered at each of the four PNA target sites) was incubated with various molar excess (0× to 1000×) of PNA at 37° C. overnight in a final volume of 15 uL with 10 mM Tris and 1 mM of EDTA. The resultant material was incubated with equal amount of Dynabeads M280-streptavidin (DYNAL biotech) for […] at 25° C. Beads had been prepared by washing twice with BW buffer (10 mM Tris, pH7.5, 1 mM EDTA, 2.0M NaCl). The beads were pulled down with a Dynal MPC-S magnetic particle concentrator and washed twice with BW buffer. Samples were finally suspended in 50 uL BW buffer, and radioactivity was counted for 10 minutes in a scintillation counter to yield the average counts per minute (cpm) taken for each sample, which was then divided by the cpm of the input (1 uL of the radio-labeled oligo).

[3] = system: endogenous γ-globin promoter; test: Chromatin association assay in K562 cells (streptavidin bead pull-down, quantitative PCR); assay type: cell-based, human; settings: 10 μM in K562 cells
Text: To determine whether PNA78 can interact with its target site in vivo, a modification of the chromatin immunoprecipitation assay was developed. […] Along with the “no addition” negative control, a variant of PNA78 that contain two point mutations (MUT PNA78) was synthesized and used it as an additional negative control along with a “TAT alone” control.
This assay incorporates elements of chromatin [see Siatecka, M., Xue, L. & Bieker, J. J., Sumoylation of EKLF promotes transcriptional repression and is involved in inhibition of megakaryopoiesis, Mol Cell Biol 27, 8547-8560 (2007)] and biotinylated protein [see Viens, A., Mechold, U., Lehrmann, H., Harel-Bellan, A. & Ogryzko, V., Use of protein biotinylation in vivo for chromatin immunoprecipitation. Anal Biochem 325, 68-76 (2004)] immunoprecipitation protocols. PNA 78/TAT or mutant (MUT) PNA 78/TAT were added to 10^7 K562 cells to a final concentration of 10 μM. After […], a portion of the cells were analyzed and quantified for PNA incorporation efficiency by confocal analysis of live cells (as above), and the rest were harvested and cross-linked with 0.4% formaldehyde (Fisher Scientific, F79-500) for 10 minutes in room temperature then quenched by addition of glycine in the final concentration of 0.125 M for another 10 minutes. […]
After 16 hours of incubation of K562 cells, any formed PNA-chromatin complex was cross-linked and cells were disrupted and chromatin was sheared by sonication. […] The DNA was purified for sequence identification by quantitative PCR. To more precisely quantitate the extent of PNA entry into the nucleus, a portion of the cells from each treatment was collected, stained with the DRAQ5 live-cell nuclear stain, attached to chamber-slides, and inspected under confocal microscopy to compare PNA and TAT nuclear entry efficiency.
One microliter of DNA was used in 20 μl of quantitative PCR reaction using a Quantitect SYBR Green PCR kit from Qiagen (Valenica, Calif.) and the presence of γ-globin promoter sequences was quantified with an ABI PRISM 7900HT and SDS software. […]

[4] = system: PNA78 target sequence/minimal SV40 promoter luciferase reporter in 293T cells; test: Luciferase reporter with four repeats of PNA78 target sequence and minimal SV40 promoter in 293T cells; assay type: cell-based
[5] = system: PNA78 target sequence/minimal SV40 promoter luciferase reporter in K562 cells; test: Luciferase reporter with four repeats of PNA78 target sequence and minimal SV40 promoter in K562 cells; assay type: cell-based, human
[6] = system: human γ-globin gene in MBC-βYAC cells; test: γ-globin expression by quantitative RT-PCR in β-YAC mouse bone marrow cells; assay type: cell-based
Text: To test this, a line of mouse bone marrow cells engineered to carry a yeast artificial chromosome that contains the complete human β-like globin locus (β-YAC) was used.
After treatment, cells were harvested and mRNA was extracted for reverse transcriptase (RT)-quantitative polymerase chain reaction (qPCR) using two different sets of published primers that recognize sequences within the γ-globin gene.
Total RNA from β-YAC MBCs were isolated with a RNeasy micro kit (Qiagen) following the manufacturer's instructions. RNA concentrations were quantified using a Nanodrop. Reverse transcription of RNA was performed with Promega's Reverse Transcription System and expression levels were quantified using a Quantitect SYBR Green PCR kit from Qiagen in conjunction with an ABI PRISM 7900HT and SDS software [see Lohmann, F. & Bieker, J. J. supra] Q-PCR results for globin expression were normalized by 2−[(Ct γ−Ct β)−(Ct γ [no PNA]−Ct β [noPNA])][see Livak, K. J. & Schmittgen, T. D., Analysis of relative gene expression data using real-time quantitative PCR and the 2(−Delta Delta C(T)) Method. Methods 25, 402-408 (2001)] divided by the PNA incorporation efficiency (determined from the live cell image data). Each reaction was performed in triplicate.

[7] = system: γ-globin protein in human peripheral blood CD34+ cells
Protocol: (§1) K562 cells served as a positive control. FIG. 13(c) contains dot plots and histograms from toxicity analysis by flow cytometry of cultured CD34+ cells after PNA treatment.
(§2) Purified CD34+ cells were cultured, treated at the end of day 2 with the various PNA chimeras or with no PNA, and harvested 16 hours later for analysis.

[8] = system: γ-globin expression in human mobilized peripheral blood CD34+ cells; settings: treated at end of day 2, harvested 16 hours later
Protocol: as §1, §2

[9] = system: γ-globin protein in MBC-βYAC cells; settings: not detectable in untreated cells
Protocol: K562 cells were also stained and served as a positive control for γ-globin protein detection (arrowheads).
At 48 hours post-PNA treatment, 100K MBC-βYAC cells were collected and spun onto frosted slides (Fisher) in a Shandon Cytospin 2 centrifuge at 500 rpm for 5 minutes. All steps were carried out at room temperature except when indicated. Cells were fixed for 4 minutes in ice-cold acetone/methanol (1:1) on ice and rinsed twice with 2% BSA/PBS. Samples were then incubated with blocking solution (10% FCS, 0.05% NP40/PBS) for 30 minutes followed by a two-hour incubation with hemoglobin γ antibody (Santa Cruz Biotechnology, sc-21756) diluted 1:100 in blocking solution. Slides were washed 3× with 2% BSA, 0.05% NP40/PBS and then incubated with goat anti-mouse secondary antibody conjugated to Alexa 568 (Invitrogen) at a 1:50 dilution for one hour in a dark chamber. Slides were then washed 3× with 2% BSA/PBS with a final rinse in PBS and mounted with DAPI-containing Vectashield. DAPI and Alexa568 images were visualized on a Zeiss spinning disc confocal microscope (PerkinElmer).

[10] = system: γ-globin promoter region −299 to +37; settings: PNA 50 uM, overnight at 37° C.
Protocol: To further confirm the observation in the magnetic-pull down assay, permanganate (KMnO4) probing of the PNA78/DNA interaction in solution was carried out (FIG. 1(c)). […] Methods Mol Biol 208, 91-109 (2002)], 1 ng of a singly ^32P-end-labeled, gel purified RsaI/XhoI fragment derived from the p250 plasmid that contains the γ-globin promoter region −299 to +37 was incubated in a volume of 15 μL with a final concentration of 10 mM Tris and 1 mM EDTA for 30 minutes at 37° C. PNA was added at a final concentration of 50 uM for further incubation overnight at 37° C. 1 uL 20 mM KMnO4 was added to the reaction, and after 15 s 10 uL stop buffer (1.5 M sodium acetate, 1 M 2-mercaptoethanol, Ph 7.0) was added. 2.5× vol of 96% ethanol was added and the DNA collected by centrifugation at 13000 rpm for 15 minutes. The supernatant was removed and the DNA pellet dissolved in 100 uL 10% piperidine followed by incubation at 90° C. for 20 minutes. The lympholized DNA sample was resuspended in 8 μL FA buffer (80% deionized fomamide, 10 mM EDTA, 0.25% xylenecyanol FF, 0.25% bromphenol blue). DNA was denatured at 90° C. for 2 minutes, chilled on ice, and then electrophoresed on thin 10% polyacrylamide gels containing 7 M urea. The dried gel was then exposed for autoradiography.

[11] = wild type γ-promoter, 10 μM, 36 hours

Substance: Biotin-OO-TACTCTAAGACTATT-O-PKKKRKV [PNA78/NLS]
- effect on activity of γ-globin luciferase reporter (superactivation) [1, 11]: mild

Substance: Biotin-OO-GGCTATTGGTCAAGGC-k [PNA116]
- binding to the mutant DNA target [2]: bound to the mutant DNA target to an unacceptable extent
- binding of PNA to its target DNA oligo (bound/input) [2]: bound their target DNA oligo in proportion to their input

Substance: Biotin-OO-GAGTTTAGCCAGG-O-k [PNA150]
- binding of PNA to its target DNA oligo (bound/input) [2]: did not discriminate or bind well

Substance: Biotin-OO-TACTCTAAGACTATT-O-YGRKKRRQRRR [PNA78/TAT]
- effect on activity of γ-globin luciferase reporter (superactivation) [1]: stronger
- superactivation of γ-promoter reporter mutated at the PNA78 target site [1]: negated its ability to be superactivated
- interaction with target sequence within the γ-globin promoter (quantitative PCR of precipitated DNA) [3]: greater than the non-specific MUT PNA78 and TAT alone

Substance: Bio-OO-DFDLDMLGDFDLDMLG-O-TACTCTAAGACTATT-O-YGRKKRRQRRR [VP2/PNA78/TAT]
- effect on activity of γ-globin luciferase reporter (superactivation) [1, 11]: little effect beyond that seen with PNA78/TAT
- luciferase activity increase [4]: not observed at all
- luciferase activity increase compared to non-treated cells [5]: 2.3 fold

Substance: Bio-OO-CGSDALDDFDLDML-O-TACTCTAAGACTATT-O-YGRKKRRQRRR [Bio-ATF/PNA78/TAT]
- ability to activate γ-globin expression ([6]; biotin at the extreme 5′ end): precluded its ability to activate γ-globin expression

Substance: YGRKKRRQRRR [TAT alone, reference compound]
- effect on activity of γ-globin luciferase reporter (superactivation) [1, 11]: no effect
- interaction with target sequence within the γ-globin promoter (quantitative PCR of precipitated DNA) [3]: not higher than the ‘no addition’ control

Substance: H2N-CGSDALDDFDLDML-Biotin-O-TACTCTAAGACTATT-O-YGRKKRRQRRR [ATF-Bio/PNA78/TAT]
- γ-globin protein accumulation [7]: γ-globin protein accumulation solely in those cells
- cells positive for γ-globin protein ([7]; visual analysis of ≧100 cells per field): 22%
- increase of γ-globin expression compared to untreated cells [8]: ~5 fold
- γ-globin protein expression in the cytoplasm [9]: levels approaching that seen in uninduced K562 cells
- increase of γ-globin levels/expression ([6]; 16 hours after PNA treatment, in comparison to cells treated with PNA78/TAT alone): 7 fold

Substance: Biotin-OO-TACTATAAAACTATT-O-YGRKKRRQRRR [MUT PNA78/TAT]
- interaction with target sequence within the γ-globin promoter (quantitative PCR of precipitated DNA) [3]: not higher than the ‘no addition’ control

Substance: Biotin-OO-TGTGGAACTGCTGAA-O-k [PNA7]
- binding of PNA to its target DNA oligo (bound/input) [2]: did not discriminate or bind well

Substance: Biotin-OO-TACTCTAAGACTATT-O-k [PNA78]
- discrimination between wild type and mutant oligos [2]: ~25 fold
- binding of PNA to its target DNA oligo (bound/input) [2]: bound their target DNA oligo in proportion to their input
- binding to target region within the γ-globin promoter fragment [10]: binds specifically to its target region

From patent US8927502B2, “Embedded chimeric peptide nucleic acids and uses thereof” (ICahn School of Medicine at Mount Sinai, priority 2010, dated 2015)
